The values below come from patent US12703729B2, “GIP agonist compounds and methods” (Zealand Pharma A/S, priority 2014, dated 2026).

In assay [1] the target is T1, human GIP receptor (GIP R) (Homo sapiens, UniProt P48546).
T1 sequence (P48546 22-466): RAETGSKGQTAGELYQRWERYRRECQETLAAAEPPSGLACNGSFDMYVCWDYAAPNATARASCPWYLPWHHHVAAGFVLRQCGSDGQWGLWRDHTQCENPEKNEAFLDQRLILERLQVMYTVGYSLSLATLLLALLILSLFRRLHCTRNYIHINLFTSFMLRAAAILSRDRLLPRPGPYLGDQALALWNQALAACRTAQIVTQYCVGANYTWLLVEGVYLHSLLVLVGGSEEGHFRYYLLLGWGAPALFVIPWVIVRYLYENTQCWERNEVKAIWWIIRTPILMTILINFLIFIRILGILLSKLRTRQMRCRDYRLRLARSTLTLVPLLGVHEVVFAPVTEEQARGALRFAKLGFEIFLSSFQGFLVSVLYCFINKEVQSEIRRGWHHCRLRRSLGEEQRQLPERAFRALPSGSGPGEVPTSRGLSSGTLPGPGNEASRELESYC
Description: Activity assay at human GIP receptor, cAMP induction (AlphaScreen), Example 3. (In general: Bead proximity is the source of the signal in Alpha formats.)

The target in assay [2] is human GLP-1 receptor (GLP-1R) (Homo sapiens, UniProt P43220). Description: Activity assay at human GLP-1 receptor, cAMP induction (AlphaScreen), Example 3.
The target of the next assay is T2, human GIP R (Homo sapiens, UniProt P48546).
T2 sequence (P48546 22-466): T1 sequence (P48546 22-466)
Description: cell-based.

The term EC50 denotes the concentration that produces a half-maximal response. A higher EC50 goes with weaker potency.

Starred links: 1 amine or outer side, 2 acyl side, 3 side chain; linkers in the order of their positions; H or OH if unused. Non-standard residues stand in square brackets, D forms with d. Residues, ends and D or L forms follow the SMILES beside them. Groups on a side chain read outwards from the residue. *: point of attachment. C20 diacid = O=C(O)CCCCCCCCCCCCCCCCCCC(=O)*; γGlu = O=C(O)[C@H](CCC(=O)[*:2])N[*:1]; AEEA = NCCOCCOCC(=O)O; Aib = CC(C)(N)C(=O)O

Chain of human GLP-1 receptor (GLP-1R) (P43220 24-463): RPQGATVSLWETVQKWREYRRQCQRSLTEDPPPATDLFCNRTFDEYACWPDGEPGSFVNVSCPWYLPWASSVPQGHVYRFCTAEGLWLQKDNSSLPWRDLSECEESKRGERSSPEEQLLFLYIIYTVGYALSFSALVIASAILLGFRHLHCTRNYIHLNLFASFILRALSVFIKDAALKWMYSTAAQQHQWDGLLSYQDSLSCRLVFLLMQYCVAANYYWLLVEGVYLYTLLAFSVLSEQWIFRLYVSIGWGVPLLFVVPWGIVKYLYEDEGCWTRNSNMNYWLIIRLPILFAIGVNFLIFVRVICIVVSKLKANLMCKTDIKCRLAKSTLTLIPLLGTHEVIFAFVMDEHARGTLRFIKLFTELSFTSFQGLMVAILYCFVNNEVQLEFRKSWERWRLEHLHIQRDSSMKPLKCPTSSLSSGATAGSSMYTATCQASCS

For the molecule `CC[C@H](C)[C@H](NC(=O)[C@H](CCCCN)NC(=O)[C@H](CC(=O)O)NC(=O)[C@H](CC(C)C)NC(=O)[C@H](CCC(=O)O)NC(=O)[C@@H](NC(=O)[C@H](CO)NC(=O)[C@H](Cc1ccc(O)cc1)NC(=O)[C@H](CC(=O)O)NC(=O)[C@H](CO)NC(=O)[C@@H](NC(=O)[C@H](Cc1ccccc1)NC(=O)[C@@H](NC(=O)CNC(=O)[C@H](CCC(=O)O)NC(=O)C(C)(C)NC(=O)[C@@H](N)Cc1ccc(O)cc1)[C@@H](C)O)[C@@H](C)CC)[C@@H](C)CC)C(=O)N[C@@H](C)C(=O)N[C@@H](CCC(N)=O)C(=O)N[C@@H](CCCCN)C(=O)N[C@@H](CCC(=O)O)C(=O)N[C@@H](Cc1ccccc1)C(=O)N[C@H](C(=O)N[C@@H](CCC(=O)O)C(=O)N[C@@H](Cc1c[nH]c2ccccc12)C(=O)N[C@@H](CC(C)C)C(=O)N[C@@H](CC(C)C)C(=O)N[C@@H](C)C(=O)NCC(=O)N1CCC[C@H]1C(=O)N[C@@H](CO)C(=O)N[C@@H](CO)C(=O)NCC(=O)N[C@@H](C)C(=O)N1CCC[C@H]1C(=O)N1CCC[C@H]1C(=O)N1CCC[C@H]1C(=O)N[C@@H](CO)C(=O)N[C@@H](CCCCNC(=O)COCCOCCNC(=O)COCCOCCNC(=O)CC[C@H](NC(=O)CCCCCCCCCCCCCCCCCCC(=O)O)C(=O)O)C(N)=O)[C@@H](C)CC` [Compound 24] (H-Y[Aib]EGTFISDYSIELDKIAQKEFIEWLLAGPSSGAPPPSK([AEEA-AEEA-γGlu-C20 diacid])-NH2), the EC50 in assay [1] is 0.01 nM; in assay [2] it was > 10 nM; on human GIP R, 0.008 nM.

Take `CC[C@H](C)[C@H](NC(=O)[C@H](CCCCN)NC(=O)[C@H](CC(=O)O)NC(=O)[C@H](CC(C)C)NC(=O)[C@H](CCC(=O)O)NC(=O)[C@@H](NC(=O)[C@H](CO)NC(=O)[C@H](Cc1ccc(O)cc1)NC(=O)[C@H](CC(=O)O)NC(=O)[C@H](CO)NC(=O)[C@@H](NC(=O)[C@H](Cc1ccccc1)NC(=O)[C@@H](NC(=O)CNC(=O)[C@H](CCC(=O)O)NC(=O)C(C)(C)NC(=O)[C@@H](N)Cc1ccc(O)cc1)[C@@H](C)O)[C@@H](C)CC)[C@@H](C)CC)C(=O)N[C@@H](C)C(=O)N[C@@H](C)C(=O)N[C@@H](CCC(N)=O)C(=O)N[C@@H](CC(=O)O)C(=O)N[C@@H](Cc1ccccc1)C(=O)N[C@H](C(=O)N[C@@H](CCC(=O)O)C(=O)N[C@@H](Cc1c[nH]c2ccccc12)C(=O)N[C@@H](CC(C)C)C(=O)N[C@@H](CC(C)C)C(=O)N[C@@H](C)C(=O)NCC(=O)N1CCC[C@H]1C(=O)N[C@@H](CO)C(=O)N[C@@H](CO)C(=O)NCC(=O)N[C@@H](C)C(=O)N1CCC[C@H]1C(=O)N1CCC[C@H]1C(=O)N1CCC[C@H]1C(=O)N[C@@H](CO)C(=O)N[C@@H](CCCCNC(=O)COCCOCCNC(=O)COCCOCCNC(=O)CC[C@H](NC(=O)CCCCCCCCCCCCCCCCCCC(=O)O)C(=O)O)C(N)=O)[C@@H](C)CC` [Compound 25] (H-Y[Aib]EGTFISDYSIELDKIAAQDFIEWLLAGPSSGAPPPSK([AEEA-AEEA-γGlu-C20 diacid])-NH2): the results for the EC50 (in assay [1]; in assay [2]; at human GIP R) were 0.008 nM, > 100 nM and 0.032 nM, respectively.
